Assay results from ChEMBL document CHEMBL4028815, “Novel phosphonate analogs of sulforaphane: Synthesis, in vitro and in vivo anticancer activity” (Eur J Med Chem, 2017).
Activity calls are given as the source filed them. No cut-off for these calls is given here.

Legend:
4T1 [1] = test: Anti-tumor activity against mouse 4T1 cells implanted in BALB/c mdb mouse assessed as lung metastasis at 300 umol/kg, ip administered five times weekly measured at 29 days post cell innoculum (reference value: 56 +/- 25); type: functional
Mus musculus [2] = test: Toxicity in BALB/c mdb mouse implanted with mouse 4T1 cells assessed as serum AST level at 300 umol/kg, ip administered five times weekly measured at 29 day post cell innoculum (reference value: 136 +/- 10.3 U/L); type: organism-based; conditions: in vivo, 696 h
Mus musculus [3] = test: Nephrotoxicity in BALB/c mdb mouse implanted with mouse 4T1 cells assessed as kidney weight at 300 umol/kg, ip administered five times weekly measured at 29 day post cell innoculum (reference value: 0.136 +/- 0.006 g); type: toxicity, organism-based; conditions: in vivo, 696 h
Mus musculus [4] = test: Toxicity in BALB/c mdb mouse implanted with mouse 4T1 cells assessed as hematocrit at 300 umol/kg, ip administered five times weekly measured at 29 day post cell innoculum (reference value: 39.9 +/- 3.7 %); type: organism-based; conditions: in vivo, 696 h
4T1 [5] = test: Anti-tumor activity against mouse 4T1 cells implanted in BALB/c mdb mouse assessed as tumor growth inhibition at 300 umol/kg, ip administered five times weekly measured on day 15 post cell innoculum relative to control; type: functional; conditions: 4T1, ip, 360 h, read-out: TGI
LoVo [6] = test: Induction of apoptosis in human LoVo cells assessed as increase in caspase3/7 activity at 15 uM using Ac-DEVD-ACC as substrate pretreated for 24 hrs followed by substrate addition measured for 2 hrs by fluorescence assay relative to control; type: functional
Mus musculus [7] = test: Toxicity in BALB/c mdb mouse implanted with mouse 4T1 cells assessed as RBC level at 300 umol/kg, ip administered five times weekly measured at 29 day post cell innoculum (reference value: 8.6 +/- 0.9 10^6/uL); type: organism-based; conditions: in vivo, 696 h
LoVo [8] = test: Induction of apoptosis in human LoVo cells assessed as increase in early apoptotic cells at 15 uM after 24 hrs by APC-Annexin-V/propidium iodide staining based flow cytometric method relative to control; type: functional
Mus musculus [9] = test: Toxicity in BALB/c mdb mouse implanted with mouse 4T1 cells assessed as body weight loss at 300 umol/kg, ip administered on day 14 post cell innoculum; type: organism-based; conditions: in vivo
[10] = Induction of apoptosis in human LoVo/DX cells assessed as increase in caspase3/7 activity at 15 uM using Ac-DEVD-ACC as substrate pretreated for 24 hrs followed by substrate addition measured for 2 hrs by fluorescence assay relative to control; type: functional
Mus musculus [11] = test: Toxicity in BALB/c mdb mouse implanted with mouse 4T1 cells assessed as serum PLT level at 300 umol/kg, ip administered five times weekly measured at 29 day post cell innoculum (reference value: 972 +/- 157 10^3/uL); type: organism-based; conditions: in vivo, 696 h
Mus musculus [12] = test: Toxicity in BALB/c mdb mouse implanted with mouse 4T1 cells assessed as lung weight at 300 umol/kg, ip administered five times weekly measured at 29 day post cell innoculum (reference value: 0.2 +/- 0.018 g); type: organism-based; conditions: in vivo, 696 h
Mus musculus [13] = test: Toxicity in BALB/c mdb mouse implanted with mouse 4T1 cells assessed as serum ALT level at 300 umol/kg, ip administered five times weekly measured at 29 day post cell innoculum (reference value: 23.8 +/- 2.2 U/L); type: organism-based; conditions: in vivo, 696 h
Mus musculus [14] = test: Toxicity in BALB/c mdb mouse implanted with mouse 4T1 cells assessed as serum urea level at 300 umol/kg, ip administered five times weekly measured at 29 day post cell innoculum (reference value: 3.8 +/- […]); type: organism-based; conditions: in vivo, 696 h
Mus musculus [15] = test: Toxicity in BALB/c mdb mouse implanted with mouse 4T1 cells assessed as WBC level at 300 umol/kg, ip administered five times weekly measured at 29 day post cell innoculum (reference value: 212.3 +/- 82.8 10^3/uL); type: organism-based; conditions: in vivo, 696 h
Mus musculus [16] = test: Toxicity in BALB/c mdb mouse implanted with mouse 4T1 cells assessed as serum creatinine level at 300 umol/kg, ip administered five times weekly measured at 29 day post cell innoculum (reference value: 9.3 +/- 1.2 umol/L); type: organism-based; conditions: in vivo, 696 h
Mus musculus [17] = test: Toxicity in BALB/c mdb mouse implanted with mouse 4T1 cells assessed as hemoglobin level at 300 umol/kg, ip administered five times weekly measured at 29 day post cell innoculum (reference value: 15.1 +/- 1.5 g/dl); type: organism-based; conditions: in vivo, 696 h
LoVo/DX [18] = test: Induction of apoptosis in human LoVo/DX cells assessed as late apoptotic cells at 15 uM after 24 hrs by APC-Annexin-V/propidium iodide staining based flow cytometric method relative to control; type: functional
LoVo [19] = test: Induction of apoptosis in human LoVo cells assessed as necrotic cells at 15 uM after 24 hrs by APC-Annexin-V/propidium iodide staining based flow cytometric method (reference value: 10%); type: functional
4T1 [20] = test: Anti-tumor activity against mouse 4T1 cells implanted in BALB/c mdb mouse assessed as tumor growth inhibition at 300 umol/kg, ip administered five times weekly measured on day 29 post cell innoculum relative to control; type: functional; conditions: 4T1, ip, 696 h, read-out: TGI
LoVo [21] = test: Induction of apoptosis in human LoVo cells assessed as late apoptotic cells at 15 uM after 24 hrs by APC-Annexin-V/propidium iodide staining based flow cytometric method relative to control; type: functional
Mus musculus [22] = test: Toxicity in BALB/c mdb mouse implanted with mouse 4T1 cells assessed as spleen weight at 300 umol/kg, ip administered five times weekly measured at 29 day post cell innoculum (reference value: 0.603 +/- 0.133 g); type: organism-based; conditions: in vivo, 696 h
Mus musculus [23] = test: Toxicity in BALB/c mdb mouse implanted with mouse 4T1 cells assessed as body weight loss at 300 umol/kg, ip administered five times weekly measured on day 11 post cell innoculum; type: organism-based; conditions: in vivo
[24] = Induction of apoptosis in human LoVo/DX cells assessed as loss of mitochondrial membrane potential at 15 uM after 24 hrs by JC-1 staining based flow cytometric method relative to control; type: functional
LoVo [25] = test: Cell cycle arrest in human LoVo cells at 15 uM after 24 hrs by propidium iodide staining based flow cytometric method; type: functional
Mus musculus [26] = test: Hepatotoxicity in BALB/c mdb mouse implanted with mouse 4T1 cells assessed as liver weight at 300 umol/kg, ip administered five times weekly measured at 29 day post cell innoculum (reference value: 1.2 +/- 0.13 g); type: toxicity, organism-based; conditions: in vivo, 696 h
LoVo [27] = test: Induction of apoptosis in human LoVo cells assessed as loss of mitochondrial membrane potential at 15 uM after 24 hrs by JC-1 staining based flow cytometric method relative to control; type: functional
4T1 [28] = test: Cytotoxicity against mouse 4T1 cells after 72 hrs by sulforhodamine B assay; type: functional, cell-based; conditions: 4T1, 72 h
MES-SA/Dx5 = test: Cytotoxicity against human MESSA/DX5 cells after 72 hrs by sulforhodamine B assay; type: functional, cell-based; conditions: MES-SA/Dx5, 72 h
A549 = test: Cytotoxicity against human A549 cells after 72 hrs by sulforhodamine B assay; type: functional, cell-based; conditions: A549, 72 h
BALB/3T3 = test: Cytotoxicity against mouse BALB/3T3 cells after 72 hrs by sulforhodamine B assay; type: cell-based; conditions: BALB/3T3, 72 h
LoVo/DX [29] = test: Cell cycle arrest in human LoVo/DX cells at 15 uM after 24 hrs by propidium iodide staining based flow cytometric method; type: functional
LoVo [30] = test: Induction of apoptosis in human LoVo cells assessed as increase in caspase3/7 activity at >15 uM using Ac-DEVD-ACC as substrate pretreated for 24 hrs followed by substrate addition measured for 2 hrs by fluorescence assay; type: functional, cell-based
[31] = Resistance index, ratio of IC50 for human HL60/MX2 cells to IC50 for human HL60 cells; type: functional
[32] = Resistance index, ratio of IC50 for human LoVo/DX cells to IC50 for human LoVo cells; type: functional
LoVo [33] = test: Cytotoxicity against human LoVo cells after 72 hrs by sulforhodamine B assay; type: functional, cell-based
HL60/MX2 = test: Cytotoxicity against human HL60/MX2 cells after 72 hrs by sulforhodamine B assay; type: functional, cell-based; conditions: HL60/MX2, 72 h
MES-SA = test: Cytotoxicity against human MESSA cells after 72 hrs by sulforhodamine B assay; type: functional, cell-based
[34] = Cytotoxicity against human LoVo/DX cells after 72 hrs by sulforhodamine B assay; type: functional, cell-based
HL-60 = test: Cytotoxicity against human HL60 cells after 72 hrs by sulforhodamine B assay; type: functional, cell-based; conditions: HL-60, 72 h
LoVo/DX [35] = test: Induction of apoptosis in human LoVo/DX cells assessed as increase in caspase3/7 activity at >15 uM using Ac-DEVD-ACC as substrate pretreated for 24 hrs followed by substrate addition measured for 2 hrs by fluorescence assay; type: functional, cell-based
[36] = Cytotoxicity against human LoVo/DX cells assessed as cell death at >15 uM after 24 hrs; type: cell-based
LoVo [37] = test: Cytotoxicity against human LoVo cells assessed as cell death at >15 uM after 24 hrs; type: cell-based
LoVo [38] = test: Potency index, ratio of benzyl isothiocyanate IC50 to compound IC50 for human LoVo cells; type: functional
LoVo [39] = test: Potency index, ratio of sulforaphane IC50 to compound IC50 for human LoVo cells; type: functional
Mus musculus [40] = test: Toxicity in BALB/c mdb mouse implanted with mouse 4T1 cells assessed as body weight loss at 300 umol/kg, ip administered five times weekly measured 3 times weekly during compound dosing; type: organism-based; conditions: in vivo

S=C=NCc1ccccc1 [BENZYL ISOTHIOCYANATE]
Activity (4T1 [1]): 36
Activity (Mus musculus [2]): 158.6 U/L
Activity (Mus musculus [3]): 0.13 g
Activity (Mus musculus [4]): 45.1%
inhibition in vivo at 300 µmol/kg (4T1 [5]): 18.1%
fold change (FC) (LoVo [6]): 11
Activity (Mus musculus [7]): 8.8 ×10⁶ /uL
Activity (LoVo [8]): 17.8%
Activity (Mus musculus [9]): Non-Toxic
fold change (FC) [10]: 9.4
Activity (Mus musculus [11]): 871 ×10³ /uL
Activity (Mus musculus [12]): 0.245 g
Activity (Mus musculus [13]): 21.5 U/L
Activity (Mus musculus [14]): 5.6 mmol/L
Activity (Mus musculus [15]): 300.8 ×10³ /uL
Activity (Mus musculus [16]): 9.7 µmol/L
Activity (Mus musculus [17]): 16 g/dL
Activity (LoVo/DX [18]): Active
Activity (LoVo [19]): Active
inhibition in vivo at 300 µmol/kg (4T1 [20]): 26.8%
Activity (LoVo [21]): Active
Activity (Mus musculus [22]): 0.428 g
Activity (Mus musculus [23]): Toxic
Activity [24]: 64.6%
Activity (LoVo [25]): Active
Activity (Mus musculus [26]): 1.21 g
Activity (LoVo [27]): 67.6%

CC(C)OP(=O)(CCCCCCN=C=S)OC(C)C
Activity (4T1 [1]): 49
IC50 (4T1 [28]): 2.5 µM
IC50 (MES-SA/Dx5): 5.8 µM
Activity (Mus musculus [2]): 163.3 U/L
Activity (Mus musculus [3]): 0.147 g
IC50 (A549): 10 µM
Activity (Mus musculus [4]): 49.6%
inhibition in vivo at 300 µmol/kg (4T1 [5]): 40.4 to 41%
IC50 (BALB/3T3): 11.7 µM
fold change (FC) (LoVo [6]): 3
Activity (Mus musculus [7]): 10 ×10⁶ /uL
Activity (LoVo [8]): inactive
Activity (LoVo/DX [29]): inactive
Activity (LoVo [30]): inactive
Ratio IC50 [31]: 1.4
Ratio IC50 [32]: 3.5
fold change (FC) [10]: 2.2
IC50 (LoVo [33]): 2.7 µM
Activity (Mus musculus [11]): 767 ×10³ /uL
IC50 (HL60/MX2): 4 µM
Activity (Mus musculus [12]): 0.222 g
Activity (Mus musculus [13]): 26.6 U/L
Activity (Mus musculus [14]): 4.7 mmol/L
Activity (Mus musculus [15]): 259.1 ×10³ /uL
Activity (Mus musculus [16]): 7.1 µmol/L
Activity (Mus musculus [17]): 18.2 g/dL
Activity (LoVo/DX [18]): Active
Activity (LoVo [19]): Active
inhibition in vivo at 300 µmol/kg (4T1 [20]): -0.2%
IC50 (MES-SA): 9.5 µM
IC50 [34]: 9.4 µM
IC50 (HL-60): 2.9 µM
Activity (LoVo/DX [35]): inactive
Activity [36]: Toxic
Activity (LoVo [37]): Toxic
Activity (LoVo [21]): Active
Ratio IC50 (LoVo [38]): 5
Activity (Mus musculus [22]): 0.535 g
Ratio IC50 (LoVo [39]): 10
Activity [24]: 35%
Activity (Mus musculus [40]): <= 10%
Activity (LoVo [25]): inactive
Activity (Mus musculus [26]): 1.32 g
Activity (LoVo [27]): 35%
